Test results as given in US5126368A, “Octenoic acid derivatives useful as thromboxane A2 inhibitors” (Imperial Chemical Industries plc, priority 1985, dated 1992).

Experiments:
rabbit aortal strip = assay: Test (a): rabbit aortal strip model (Piper and Vane); format: cell-based; settings: agonist TXA2 or U46619
Method: (§1) As stated earlier, the compound of formula I is an antagonist of one or more of the actions of TXA2, for example certain of its actions on blood platelets, the vasculature and/or the lung.
(a) The rabbit aortal strip model devised by Piper and Vane (Nature, 1969, 223, 29-35) using as agonist a freshly prepared sample of TXA2, generated by addition of arachidonic acid (25 μg) to citrated, platelet rich rabbit plasma (250 μl) and allowing the mixture to aggregate fully over 90 seconds before use; alternatively the TXA2 mimetic agent known as U46619 (described by R.L. Jones et alia in "Chemistry, Biochemistry and Pharmacological Activity of Prostanoids" edited by S.M. Roberts and F. Scheinmann, at page 211; Pergamon Press, 1979) may be used as the agonist;

[1] = molecular target: T1, human, citrated, platelet-rich plasma (Homo sapiens, UniProt P21731); assay: Test (b): U46619-induced aggregation of human citrated platelet-rich plasma (Born); format: cell-based; settings: agonist U46619, averaged over several concentrations
T1 construct: aggregating human, citrated, platelet-rich plasma; endogenous in cells; host or cells: human platelets in citrated platelet-rich plasma
T1 sequence (P21731 1-343): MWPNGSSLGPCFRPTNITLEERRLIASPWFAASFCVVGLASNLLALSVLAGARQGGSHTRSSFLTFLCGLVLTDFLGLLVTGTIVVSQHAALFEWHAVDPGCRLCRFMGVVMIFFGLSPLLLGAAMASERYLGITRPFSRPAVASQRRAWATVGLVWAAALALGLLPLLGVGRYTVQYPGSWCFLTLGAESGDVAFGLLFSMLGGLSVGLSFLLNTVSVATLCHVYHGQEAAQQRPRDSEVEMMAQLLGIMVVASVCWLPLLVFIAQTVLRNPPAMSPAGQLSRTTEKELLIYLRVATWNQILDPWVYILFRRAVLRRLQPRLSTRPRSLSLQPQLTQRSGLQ
Excerpt: as §1
(b) a blood platelet aggregation test based on that described by Born (Nature, 1962, 194, 927-929) and involving:
(i) aggregating human, citrated, platelet-rich plasma by addition of the TXA2 mimetic agent U46619 so that a dose-response curve is generated;
(ii) generating a dose-response curve for U46619 stimulated platelet aggregation in the presence of increasing amounts of test compound (generally in the range 10^-5 M to 10^-10 M); and
(iii) calculating a KB value indicating potency of TXA2 antagonism for the test compound, averaged over several concentrations, from the calculated 50% response value for U46619 aggregation in the presence and absence of test compound; and […]

[2] = system: U46619 induced hypertension; assay: Test (d): U46619-induced hypertension in anaesthetised rats; format: in vivo, rat (Alderley Park strain); settings: 1 hour after an oral dose of 5 mg/kg
Method: (d) Male rats (Alderley Park strain) are anaesthetised with sodium pentobarbital and blood pressure is monitored at the carotid artery. The TXA2 mimetic agent U46619 is administered intravenously at 5 μg/kg via the jugular vein to produce a 20-30 mm Hg ([…]) increase in systolic pressure. The procedure is repeated twice to establish reproducibility of the effect. A test compound is then administered either intravenously (via the jugular vein) or orally (via a cannula) directly into the stomach and the animal is challenged with U46619, five minutes after dosing with test compound and then successively every ten minutes until the hypertensive effect of U46619 is no longer blocked.

[3] = system: U46619 induced bronchoconstriction; assay: Test (c): U46619-induced bronchoconstriction, Konzett-Rossler anaesthetised guinea-pig model; format: in vivo; settings: 2 hours after oral dosing at 0.05 mg/kg, U46619 i.v.
Excerpt: (c) a bronchoconstriction test involving measuring the inhibition by a test compound of the bronchoconstriction induced in the Konzett-Rossler, anaesthetised guinea-pig model (as modified by Collier and James, Brit. J. Pharmacol., 1967, 30, 283-307) by intravenous administration of the TXA2 mimetic agent, U46619 and involving:
(i) obtaining a cumulative dose-response curve to U46619 induced bronchoconstriction by intravenous administration of constant volumes of increasing concentrations of U46619 (0.2-4 μg/kg) in physiological saline solution and expressing bronchoconstriction as the maximum of that theoretically obtainable with no air flow to the test animal;
(ii) generating a cumulative dose-response curve to U46619 induced bronchoconstriction at 30 minute intervals for 3 hours after oral dosing of test compound; and
(iii) calculating a dose-ratio for the test compound (that is the ratio of concentration of U46619 required to cause 50% bronchoconstriction in the presence and absence of test compound) indicating the potency of TXA2 antagonism.

Kb [1] [µM] | SMILES | pA2 (rabbit aortal strip) | inhibition of U46619 induced hypertension [2] [%] | dose ratio [3]
 | O=C(O)CCC/C=C\C[C@@H]1CO[C@H](C(F)(F)F)O[C@@H]1c1ccccc1 (relative stereo) [5(Z)-7-([2,4,5-cis]-4-phenyl-2-trifluoromethyl-1,3-dioxan-5-yl)heptenoic acid, reference compound] | 6.52±0.02 |  | 
3.35 | O=C(O)CCCC/C=C\C[C@@H]1CO[C@H](C(F)(F)F)O[C@@H]1c1ccccc1O (relative stereo) [compound of formula I, 6(Z)-8-([2,4,5-cis]-4-o-hydroxyphenyl-2-trifluoromethyl-1,3-dioxan-5-yl)octenoic acid] | 7.75±0.05 | > 70 | > 60
